The test system of series [1] is Mia PaCa2 human pancreatic cancer cells. The protocol: The following non-limiting example is directed at the treatment of neurogenic pathways for tumor growth and metastasis of pancreatic ductal adenocarcinoma (PDAC). A control experiment was performed with 10 athymic nude mice. The 10 mice were surgically prepared under anesthesia, and the surgical site was cleaned with 75% ethanol solution. A dorsal incision was used to access the spleen, pancreas and associated arterial supply. Mia PaCa2 human pancreatic cancer cells were seeded into the pancreas of each mouse. In 5 of the mice, the celiac ganglion and surrounding nerves were ablated with ethanol. The surgical procedures were completed and the mice were returned to Plexiglass boxes for observation.
The animals were monitored for detectable sickness related behavior and tumor growth was monitored via in vivo bioluminescent imaging techniques (IVIS® imaging system). Animals were monitored for relative changes in the following criteria: detectable sickness-related behavior, hunching and postural changes, signs of tumor growth in the animals' back (visible lumps), increases in piloerection, changes in skin tone and character, and changes in voluntary movement levels and exploratory behavior.

The conditions of series [2]: 7 weeks; EtOH group vs control group. On the procedure: (§1) The following, non-limiting example, is directed to treatment of cancer (e.g., pancreatic cancer), internal pain or neural mediated hyperplasia in organs (e.g., benign prostatic hyperplasia). Pancreatic carcinoma cells (Mia PaCa2) were injected into the head of the pancreas of 10 athymic nude mice (subjects). A bolus of ethanol (50-75 uL) was administered to the celiac ganglion and surrounding nerves of five of the mice (i.e., the EtOH ablation group). The remaining five subjects constitute the untreated control group.
The experiment was terminated at 7 weeks.
(§2) The metastases per group were assessed during necropsy.

Series [3] has as its system Pancreatic carcinoma cells (Mia PaCa2). On the procedure:
as §1
The mice were tracked for 7 weeks post procedure. Tumor growth rates in all subjects were monitored via bioluminescent imaging with an in vivo imaging system, i.e., IVIS Spectrum (Xenogen), twice weekly during the experiment.
as §2

[4] abbreviates: necropsy at 7 weeks, affected/total mice.

On to `CCO` [EtOH, ethanol], for which, in series [1] (2 weeks post-surgery, celiac ganglion and surrounding nerves ablated with ethanol, n=5), the “skin tone and movement versus the control mice” value is “improved skin tone and movement”. In addition, the “average tumor size relative to the average tumor size in the control group (IVIS luciferase ROI imaging)” value in series [1] (3 weeks, experimental group vs control group) amounted to 55%. Further, the “overall size difference between subjects in the groups (FIG. 11c)” value in series [2] is “no overall size difference”. Further, the “median tumor size relative to the control group median tumor size” value in series [3] (3 weeks) is “less than 1%”. In series [3] (3 weeks post procedure, median subject of each group, ethanol 50-75 uL), the “tumor growth rate compared with the control arm (FIG. 11a)” value is “substantially decreased”. In addition, in series [3] (3 weeks post procedure, treatment arm vs control arm), the “difference in bioluminescence between the median responders” value is on record as roughly 100 ×. In addition, the “mean tumor size relative to the control group” value in series [3] (3 weeks, 1-sided, alpha=0.05, n=5, p=0.11) was “half”. In addition, in series [3] (setting [4]), the “Occurrence of metastases by group: Liver” value is given as 0/5, the “Occurrence of metastases by group: Local invasion” value is listed as 2/5 and the “Occurrence of metastases by group: Stomach” value is recorded as 0/5. Besides, the “Occurrence of metastases by group: Spleen” value in series [3] (necropsy at 7 weeks, affected/total mice, nerves from pancreas to spleen not treated) is given as 4/5. The “incidence of metastases versus the untreated control group” value in series [3] (necropsy at 7 weeks, including non-responder sub-group) is “considerably lower”. The “tumor mass versus subjects of the control group” value in series [3] (subjects with ablated peri-pancreatic nerves, overall) is listed as “less tumor mass”.
